{
  "source": "patent US5843402A",
  "about": "“Synthetic peptides for use in thrombus detection” (Antisoma Research Limited, priority 1989, dated 1998)",
  "key": {"[1]": {"system": "activated platelets in whole blood (ADP stimulated blood)", "experiment": "Binding of radiolabelled peptides to ADP stimulated blood", "description": "(§1) The results (Table 2) indicate that all four peptides can bind platelets in ADP stimulated blood and that higher incorporation can be achieved In clotted blood.\n(§2) Iodogen tubes were prepared by dissolving Iodogen (1, 3, 4, 6-Tetrachloro-3α, 6α-diphenylglycouril) in chloroform at a concentration of 1 mg.ml-^1. Aliquots of 50 μl (50 μg Iodogen) were dispensed into polypropylene cryo-tubes and the chloroform evaporated to dryness. These tubes were then stored dessicated at -20° C. until required.\n(§3) Prior to radiolabelling the peptides were dissolved in phosphate buffered saline (PBS) at a concentration of 50 mg.ml-^1. RGDSYC and […] were first dissolved in a small volume of dimethyl sulphoxide (DMSO) such that the final concentration of DMSO in PBS was 1% v/v.\n(§4) Iodogen tubes were equilibrated to room temperature before the addition of 200 μl peptide solution and 1-10 μl of ^123 I (in aqueous solution). The reaction mixture was then left for 15min at room temperature with occasional shaking. Following the incubation period the reaction mixture was removed and passed through a Sephadex G10 column which had been equilibrated with PBS. The column, which separates radiolabelled peptide from free iodine was eluted with PBS and 2 ml fractions collected. Radioactivity in the fractions was measured and the eluted peptides, represented by the first radioactive peak from the column, collected and stored at 4° C. until required."}, "[2]": {"system": "ADP (1 × 10^-5 M)-induced platelet aggregation", "experiment": "Inhibition of ADP-induced platelet aggregation", "type": "cell-based", "description": "The effect of these peptides on ADP-induced platelet aggregation was determined and compared with peptide RGDS which is known to inhibit platelet aggregation."}, "clotted blood": {"system": "clotted blood", "experiment": "Binding of radiolabelled peptides to clotted blood", "description": "as §1, §2, §3, §4"}},
  "data": [
    {"sequence": "RGDSCRGDSY", "values": [
      {"measurement": "bound peptide", "setting": "[1]; 1 ng radiolabelled peptide", "result": 0.01, "unit": "ng"},
      {"measurement": "bound peptide", "setting": "[1]; 10 ng radiolabelled peptide", "result": 0.85, "unit": "ng"},
      {"measurement": "bound peptide", "setting": "[1]; 100 ng radiolabelled peptide", "result": 9.07, "unit": "ng"},
      {"measurement": "percentage inhibition of ADP-induced platelet aggregation", "setting": "[2]; peptide 0.1 mM", "result": 17, "unit": "%"},
      {"measurement": "percentage inhibition of ADP-induced platelet aggregation", "setting": "[2]; peptide 0.2 mM", "result": 57, "unit": "%"},
      {"measurement": "percentage inhibition of ADP-induced platelet aggregation", "setting": "[2]; peptide 0.4 mM", "result": 79, "unit": "%"},
      {"measurement": "bound peptide", "setting": "clotted blood; 1 ng radiolabelled peptide", "result": 0.28, "unit": "ng"},
      {"measurement": "bound peptide", "setting": "clotted blood; 10 ng radiolabelled peptide", "result": 2.64, "unit": "ng"},
      {"measurement": "bound peptide", "setting": "clotted blood; 100 ng radiolabelled peptide", "result": 29.33, "unit": "ng"}
    ]}
  ]
}
